From article PMC6274259, “New 3-Cyano-2-Substituted Pyridines Induce Apoptosis in MCF 7 Breast Cancer Cells” (Molecules, 2016)

What was measured:
[1] = tested on: MCF-7 cells; assay: TUNEL assay; format: cell-based, human; settings: 2 μM, 24 h, compared to control group
Excerpt: To ascertain induction of apoptosis of compound 9a on MCF-7 cells, the results were confirmed by immune histochemical analysis using a TUNEL assay. TUNEL assay involves labeling of the 3'-hydroxyl DNA ends generated during DNA fragmentation by means of rTdT and labeled dUTP. The localized fluorescence of apoptotic cells (labeled-dUTP) in a blue background (DAPI) for nuclei staining or green background (FITC) was visualized using fluorescence microscope.
For in situ detection of apoptotic cells, a terminal-deoxynucleotidyl transferase meditated nick end labeling (TUNEL) assay was performed using DeadEndTM fluorimetric tunnel system (Promega, Madison, WI, USA). Cells were cultured on 4-chamber slides (VWR, Radnor, PA, USA) at a density of 2 × 10^4 cells/ chamber. After treatment with compound 9a, cells were washed with phosphate buffer saline (PBS) and fixed by incubation in 4% paraformaldehyde (PFA) for 20 min at 4 °C, then permeabilized with 0.05% Triton X-100 for 5 min at 4 °C. The fixed cells were then incubated with […] dUTP in terminal deoxynucleotide transferase recombinant (rTdT)-catalyzed reaction and nucleotide mixture for 60 min at 37 °C in a humidified atmosphere and then immersed in stop/wash buffer for 15 min at room temperature. Cells were then washed with PBS to remove unincorporated fluorescein-12-dUTP. […]

[2] = tested on: MCF-7 human breast adenocarcinoma cell line; assay: WST-1 cell viability assay, MCF-7; format: cell-based; settings: for IC50: WST-1, 24 h treatment, mean ± S.D of three independent experiments
Excerpt: The synthesized compounds were screened for their cytotoxicity on five cancer cell lines, namely SK-OV-3, MCF-7, MDA-MB-231, HCT-116 and RKO, using a WST colorimetric assay. The assay principle is based upon the reduction of the tetrazolium salt WST-1 to formazan by cellular mitochondrial dehydrogenases present in viable cells. […] Among the latter compounds the benzohydrazide derivative 9a emerged with the lowest IC50 in this study against MCF-7 cells compared to 5-FU. […] Based on the fact that 9a had less cytotoxic effects on normal breast epithelial cells it was subjected to further studies.
The following cell lines were used for the screening stage, obtained from the American Type Culture Collection (ATCC, Manassas, VA, USA); SK-OV-3 (HTB-77), MCF-12A (ATCC CRL-10782), MDA-MB-231 (ATCC HTB-26), HCT-116 (CCL-247), RKO (CRL-2577) and sub-culturing of the above cell lines was conducted in 75 cm^2 flasks. The old culture media was removed and discarded after assessing the confluency of the cells and the cells were rinsed with 2–3 mL diluted trypsin (1×) (trypsin/EDTA solution consists of 0.025% trypsin and 0.01% EDTA in PBS), for about 5 minutes for complete detachment. The cells were observed under the inverted microscope until the cell layer is completely dispersed. 75 cm^2 flasks were prepared and 16 mL of DMEM media for SK-OV-3, MCF-7, MDA-MB-231, (DMEM 4500 mg glucose) and RPMI media for HCT-116 were added to each flask. The cells were aspirated gently and added to the flasks. DMEM 4500 mg/L high glucose with 10% FBS, 5% streptomycin and penicillin, RPMI 1640 (prepared by adding 5% heat-inactivated FCS and 2 mm glutamine) were used. DMEM was also used for MCF-12A cells with the addition of human epidermal growth factor 20 ng/mL, insulin 0.01 mg/mL and hydrocortisone 500 ng/mL.
The synthesized compounds were screened for their anti-proliferative activity using 5-FU (F6627-1G, Sigma-Aldrich, St. Louis, MO, USA) as reference compound. A concentration of 0.4% DMSO was used in all experiment after ensuring 100% viability of the cell lines with this concentration. A 25 mM stock concentration of all compounds was prepared for further studies and analysis.
Cells were trypsinized and placed in a 15 mL Falcon tube, the cells were centrifuged for 3 min at 1000 rpm. Trypsin is decanted using a sterile pipette and then the pellet is loosened by flicking the tube few times then 5–10 mL warm DMEM or RPMI were added to the Falcon tube and the pellet is resuspended. Cell count was done next by taking 10 μL of the suspension into the cell counting slide and read under 10× cells/mL. A cell stock of 50,000 cells/mL was prepared for the 96 wells. Cells (100 μL) were added to each well using a sterile pipette each time to ensure consistency. The experiment was planned ahead of time using excel sheet, 3–6 wells were reserved as blank media while 3–6 wells for vehicle (DMSO). The plate was incubated for 24 h for compound treatment step. DMEM media was used to prepare different dilutions of the compounds. The old DMEM media was removed from the wells using sterile pipette in the hood and the media was replaced with 100 μL media with each compound. The plate was incubated for 24 h. After 24 h incubation, WST-1 reagent (Sigma) was added to each well and then the plate was incubated for 1 h before measuring the absorbance using VICTOR™ Multilabel Plate Reader (Perkin Elmer, Beaconsfield, UK). The absorbance of the colored solution can be quantified by measuring at a certain wavelength (usually between 500–600 nm), in this experiment the first reading was conducted at 540 nm and the second reading at 690 nm for the reference wavelength. The percentage of cell viability was determined as the ratio of the absorbance of the sample vs the control. Three independent experiments were performed. […] 5-Florouracil (Sigma-Aldrich, F6627-1G) was used as reference standard.

[3] = tested on: MCF-7 cells; assay: Flow cytometric cell cycle analysis (PI staining); format: cell-based, human; settings: 2 μM, 24 h; control group 37%
Method: Flow cytometry is considered one of the specific tools for the investigation of molecular and morphological events occurring during cell death and cell proliferation. Therefore, the effect of compound 9a on cell cycle progression was studied by flow cytometry in propidium iodide (PI) stained cells. The percent of cells in G1, S, G2 phases was determined after treating cells with 2 μM of 9a for 24 h (Figure 4D). […] Thus, it can be concluded that compound 9a inhibits the proliferation of MCF-7 cells and the growth inhibition is associated with induction of G1 phase arrest. p27 is considered as an important regulator of cell cycle. To determine whether compound 9a-induced G1 arrest was associated with increased p27 level, and to study the effect on the expression of CDK2 and CDK4 involved in cell cycle progression, cells were analyzed for the expression of these proteins using western blot analysis after treatment with 2 μM of 9a for 24 h.
MCF-7 cells were seeded in 25 cm^2 flasks until reaching the desirable confluence of 1 million cells and media was changed to media containing compound 9a (2 μM). After 24 h incubation, the cells were harvested by trypsinization to detach the cells without affecting the integrity of the cell membrane. The cells were incubated with PI for 5 min at room temperature, washed twice with PBS and […]. […]

COc1ccc(-c2cc(-c3ccc(OC)c(OC)c3)c(C#N)c(OCC(=O)NNC(=O)c3ccccc3)n2)cc1OC [Compound 9a, N'-[2-(3-cyano-4,6-bis(3,4-dimethoxyphenyl)pyridin-2-yloxy)acetyl]benzohydrazide]
TUNEL staining [1]: presence of nuclear condensation and TUNEL-positive cells
IC50 ([2]; Homo sapiens, MCF7, 24 h): 2000 nM
viability at 2 µM ([2]; Homo sapiens, MCF7, 2 μM, 24 h, WST-1, read-out: cell viability in MCF-7 cells): ~50%
IC50 [2]: 2040 ± 130 nM
percent of G1 population [3]: 54%
